These molecules were tested against T1, mouse TRPM3α2 (mTRPM3) ion channel (Mus musculus, UniProt J9SQF3) (assay: TRPM3 ion channel driven Ca2+ uptake (Fluo-4 AM assay), PS-stimulated overexpressing HEK293 cells). Conditions: flip-in HEK293 overexpressing TRPM3, stimulated with Pregnenolone sulfate (PS) 50 μM, activity ranges A, B, C.
T1 construct: expressed in transfected cells; host or cells: Flp-In HEK293
Assay type: cell-based
Description: In order to monitor the inhibition of the mouse TRPM3α2 (mTRPM3) ion channel by the compounds of the invention, a cellular system making use of an mTRPM3alpha2 or hTRPM3 overexpressing cell line (flip-in HEK293) was used. The TRPM3 channel was stimulated/opened with Pregnenolone sulfate (PS) (50 μM) which results in Ca^2+ influx.
For mTRPM3, the intracellular Ca^2+ was measured with a Calcium responsive dye, Fluor-4 AMV ester (Invitrogen). Cells were cultured until a confluence of 80-90%, washed with Versene (Invitrogen) and detached from the surface by a short incubation with 0.05% Trypsin (Invitrogen). The trypsination process was stopped by the addition of complete cell culture medium (DMEM, glutamax, 10% FCS, NEAA, Pen-Strep). Cells were collected and resuspended in Krebs buffer without Calcium at RT.
Prior the cell seeding (±2000 cells/well into a black, 384 well plate (Greiner)) the diluted compound was added in the assay plate, together with the PS dissolved in Krebs buffer containing Calcium. […] Directly after cell addition the plates were read on an Envision fluorescence reader (Perkin Elmer) by an Excitation of 485 nm and emission at 535 nm.
Channel inhibition was calculated compared to a non-PS stimulated control versus a condition stimulated with PS (50 μM) with vehicle. The ability of the compounds of the invention to inhibit this activity was determined as: Percentage inhibition=[1-((RFU determined for sample with test compound present−RFU determined for sample with positive control inhibitor) divided by (RFU determined in the presence of vehicle−RFU determined for sample with positive control inhibitor))]*100.
The activities of the Example compounds tested are depicted in the table below. The activity ranges A, B and C refer to IC50 values in the Fluo-4 AM assay as follows: “A”: IC50<1 μM; “B”: 1 μM≤IC50≤20 μM and “C”: IC50>20 μM

T1 sequence (J9SQF3 1-1709 isoform J9SQF3-12): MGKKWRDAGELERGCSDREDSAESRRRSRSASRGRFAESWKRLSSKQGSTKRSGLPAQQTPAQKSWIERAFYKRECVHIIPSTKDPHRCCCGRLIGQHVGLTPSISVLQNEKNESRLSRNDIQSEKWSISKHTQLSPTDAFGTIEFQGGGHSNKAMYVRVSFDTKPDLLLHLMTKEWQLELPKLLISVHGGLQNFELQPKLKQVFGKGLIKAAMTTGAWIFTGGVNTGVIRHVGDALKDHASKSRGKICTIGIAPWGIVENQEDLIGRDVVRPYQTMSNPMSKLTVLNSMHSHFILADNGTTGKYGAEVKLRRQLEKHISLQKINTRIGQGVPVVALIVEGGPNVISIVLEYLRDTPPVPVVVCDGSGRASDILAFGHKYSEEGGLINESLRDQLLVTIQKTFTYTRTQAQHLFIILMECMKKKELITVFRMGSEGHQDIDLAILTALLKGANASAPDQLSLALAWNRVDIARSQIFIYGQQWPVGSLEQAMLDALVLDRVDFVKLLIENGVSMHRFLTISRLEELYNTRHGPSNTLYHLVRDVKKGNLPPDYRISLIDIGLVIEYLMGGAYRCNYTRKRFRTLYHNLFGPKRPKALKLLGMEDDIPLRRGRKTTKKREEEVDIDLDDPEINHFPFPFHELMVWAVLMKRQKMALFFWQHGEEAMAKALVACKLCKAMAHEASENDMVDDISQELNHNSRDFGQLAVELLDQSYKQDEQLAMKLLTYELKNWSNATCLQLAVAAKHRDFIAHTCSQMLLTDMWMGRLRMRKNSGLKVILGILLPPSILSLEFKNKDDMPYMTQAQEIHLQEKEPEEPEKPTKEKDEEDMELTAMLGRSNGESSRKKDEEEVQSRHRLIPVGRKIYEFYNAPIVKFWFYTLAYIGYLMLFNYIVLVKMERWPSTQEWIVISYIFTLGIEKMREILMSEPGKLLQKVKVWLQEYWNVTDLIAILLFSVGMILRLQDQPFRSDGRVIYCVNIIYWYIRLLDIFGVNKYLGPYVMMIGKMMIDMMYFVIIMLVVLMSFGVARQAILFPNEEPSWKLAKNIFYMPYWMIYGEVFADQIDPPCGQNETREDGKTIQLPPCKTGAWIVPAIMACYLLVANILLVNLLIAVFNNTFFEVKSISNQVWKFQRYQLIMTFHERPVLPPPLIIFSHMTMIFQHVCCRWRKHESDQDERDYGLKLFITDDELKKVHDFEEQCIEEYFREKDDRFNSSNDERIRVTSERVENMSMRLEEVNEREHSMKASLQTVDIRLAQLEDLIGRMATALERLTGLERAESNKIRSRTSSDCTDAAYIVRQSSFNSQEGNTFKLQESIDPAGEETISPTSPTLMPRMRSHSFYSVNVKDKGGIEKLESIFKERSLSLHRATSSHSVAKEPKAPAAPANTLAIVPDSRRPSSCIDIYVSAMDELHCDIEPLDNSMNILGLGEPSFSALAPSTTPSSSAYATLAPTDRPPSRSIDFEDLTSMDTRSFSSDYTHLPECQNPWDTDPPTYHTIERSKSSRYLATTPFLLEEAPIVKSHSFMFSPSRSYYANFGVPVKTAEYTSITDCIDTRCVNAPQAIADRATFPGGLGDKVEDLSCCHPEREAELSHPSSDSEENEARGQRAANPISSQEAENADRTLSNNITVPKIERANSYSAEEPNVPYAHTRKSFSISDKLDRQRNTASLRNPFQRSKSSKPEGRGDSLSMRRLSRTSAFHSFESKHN

Row | Structure (SMILES) | IC50 [µM]
1 | Cc1oc2cnc(OCc3ccccc3F)cc2c1C(=O)NC(CO)C(N)=O (single isomer, unassigned) [Cpd 008-En2, 2-({5-[(2-fluorophenyl)methoxy]-2-methylfuro[2,3-c]pyridin-3-yl}formamido)-3-hydroxypropanamide] | < 1
2 | Cc1oc2cnc(OCc3ccccn3)cc2c1C(=O)NC(CO)C(N)=O (single isomer, unassigned) [Cpd 014-En2, 3-hydroxy-2-({2-methyl-5-[(pyridin-2-yl)methoxy]furo[2,3-c]pyridin-3-yl}formamido)propanamide] | < 1
3 | Cc1oc2cnc(OCc3cccnc3C(F)(F)F)cc2c1C(=O)N[C@@H]1CCNCC1(F)F [Cpd 025, N-[(4R)-3,3-difluoropiperidin-4-yl]-2-methyl-5-{[2-(trifluoromethyl)pyridin-3-yl]methoxy}furo[2,3-c]pyridine-3-carboxamide] | < 1
4 | Cc1ncsc1COc1cc2c(C(=O)NC3(CO)COC3)c(C)oc2cn1 [Cpd 033, N-[3-(hydroxymethyl)oxetan-3-yl]-2-methyl-5-[(4-methyl-1,3-thiazol-5-yl)methoxy]furo[2,3-c]pyridine-3-carboxamide] | 1 to 20
5 | Cc1oc2cnc(OCc3ccccc3F)cc2c1C(=O)NC(C)C(N)=O (single isomer, unassigned) [Cpd 009-En1, 2-({5-[(2-fluorophenyl)methoxy]-2-methylfuro[2,3-c]pyridin-3-yl}formamido)propanamide] | 1 to 20
6 | Cc1oc2cnc(OCc3ccccn3)cc2c1C(=O)NC1(C(N)=O)COC1 [Cpd 020, N-(3-carbamoyloxetan-3-yl)-2-methyl-5-[(pyridin-2-yl)methoxy]furo[2,3-c]pyridine-3-carboxamide] | 1 to 20
7 | Cc1oc2cnc(OCc3ccccc3F)cc2c1C(=O)NC1CCN(CCO)C1=O (single isomer, unassigned) [Cpd 017-En1, 5-[(2-fluorophenyl)methoxy]-N-[1-(2-hydroxyethyl)-2-oxopyrrolidin-3-yl]-2-methylfuro[2,3-c]pyridine-3-carboxamide] | 1 to 20
8 | Cc1oc2cnc(OCc3ccccn3)cc2c1C(=O)NC(CO)C(N)=O (single isomer, unassigned) [Cpd 014-En1, 3-hydroxy-2-({2-methyl-5-[(pyridin-2-yl)methoxy]furo[2,3-c]pyridin-3-yl}formamido)propanamide] | 1 to 20
9 | Cc1oc2cnc(OCc3ccccc3F)cc2c1C(=O)NC1(CO)CC1 [Cpd 018, 5-[(2-fluorophenyl)methoxy]-N-[1-(hydroxymethyl)cyclopropyl]-2-methylfuro[2,3-c]pyridine-3-carboxamide] | 1 to 20
10 | Cc1ncsc1CCOc1cc2c(C(=O)NC3CNCC3(F)F)c(C)oc2cn1 (centres unmarked) [Cpd 023-En1, N-(4,4-difluoropyrrolidin-3-yl)-2-methyl-5-[2-(4-methyl-1,3-thiazol-5-yl)ethoxy]furo[2,3-c]pyridine-3-carboxamide] | 1 to 20
11 | Cc1oc2cnc(OCc3ccccn3)cc2c1C(=O)NC1(CO)CCC1 [Cpd 029, N-[1-(hydroxymethyl)cyclobutyl]-2-methyl-5-[(pyridin-2-yl)methoxy]furo[2,3-c]pyridine-3-carboxamide] | 1 to 20
12 | Cc1ncc(COc2cc3c(C(=O)N[C@H](C(N)=O)[C@@H](C)O)c(C)oc3cn2)s1 [Cpd 003, (2S,3R)-3-hydroxy-2-({2-methyl-5-[(2-methyl-1,3-thiazol-5-yl)methoxy]furo[2,3-c]pyridin-3-yl}formamido)butanamide] | 1 to 20
13 | Cc1ncsc1COc1cc2c(C(=O)N[C@H](C(N)=O)[C@@H](C)O)c(C)oc2cn1 [Cpd 004, (2S,3R)-3-hydroxy-2-({2-methyl-5-[(4-methyl-1,3-thiazol-5-yl)methoxy]furo[2,3-c]pyridin-3-yl}formamido)butanamide] | < 1
14 | Cc1oc2cnc(OCc3ccccn3)cc2c1C(=O)NC1(C(N)=O)CCOCC1 [Cpd 024, N-(4-carbamoyloxan-4-yl)-2-methyl-5-[(pyridin-2-yl)methoxy]furo[2,3-c]pyridine-3-carboxamide] | 1 to 20
